Measurements taken from the supplement of paper PMC6331611.
Converted amounts (≈) assume the structure as drawn. Counter-ions that a name gives are not always drawn.

What was measured:
[1] = system: Salmonella enterica serovar Typhimurium SL1344; test: intracellular MIC (10-fold luminescence reduction); higher = less potent; conditions: RAW264.7 macrophages
RAW264.7 = test: cytotoxicity (LDH release relative to maximum lysis); higher = more toxic; conditions: 50 µM; 2 h
[2] = system: Salmonella enterica serovar Typhimurium SL1344

| Structure (SMILES) | intracellular MIC [1] | MIC ([2]; LPM pH 5.8) | MIC ([2]; MHB) | MIC ([2]; MOPS glucose minimal medium) | cytotoxicity (RAW264.7) |
| --- | --- | --- | --- | --- | --- |
| C[C@@H](O)[C@H]1C(=O)N2C(C(=O)O)=C(S[C@@H]3CN[C@H](C(=O)N(C)C)C3)[C@H](C)[C@H]12 [MEROPENEM] | 3.13 µM | 3.13 µM (≈ 1.2 µg/mL) | 12.5 µM (≈ 4.79 µg/mL) | 6.25 µM (≈ 2.4 µg/mL) | 14.9% |
| COc1ccc2cc1Oc1ccc(cc1)C[C@H]1c3c(cc4c(c3Oc3cc5c(cc3OC)CCN(C)[C@@H]5C2)OCO4)CCN1C [CEPHARANTHINE] | > 50 µM | > 50 µM | > 50 µM | > 50 µM | 13.1% |
| C[CH2][Hg][S]c1ccccc1C(=O)[O-].[Na+] [THIMEROSAL] | ≤ 0.78 µM | ≤ 0.78 µM | ≤ 0.78 µM | ≤ 0.78 µM | 76.7% |
| CO[C@]12C[C@@H](COC(=O)c3cncc(Br)c3)CN(C)[C@@H]1Cc1cn(C)c3cccc2c13 [NICERGOLINE] | 25 µM | > 50 µM | > 50 µM | > 50 µM | 20.4% |
| CCCNC(C)(C)COC(=O)c1ccccc1 [MEPRYLCAINE HYDROCHLORIDE] | 1.56 µM | > 50 µM | > 50 µM | > 50 µM | 6.92% |
| CN1CCN(c2c(F)cc3c(=O)c(C(=O)O)cn4c3c2SCC4)CC1 [RUFLOXACIN HYDROCHLORIDE] | ≤ 0.78 µM | 6.25 µM | 1.56 µM | ≤ 0.78 µM | 13.3% |
| CO[C@H]1/C=C/O[C@@]2(C)Oc3c(C)c(O)c4c(O)c(c(/C=N/N5CCN(C)CC5)c(O)c4c3C2=O)NC(=O)/C(C)=C\C=C\[C@H](C)[C@H](O)[C@@H](C)[C@@H](O)[C@@H](C)[C@H](OC(C)=O)[C@@H]1C [RIFAMPIN] | ≤ 0.78 µM | 3.13 µM (≈ 2.58 µg/mL) | 50 µM (≈ 41.1 µg/mL) | 25 µM (≈ 20.6 µg/mL) | 8.58% |
| Cc1nc2ccccc2n1Cc1ccc(Cl)cc1 [CHLORMIDAZOLE] | ≤ 0.78 µM | > 50 µM | > 50 µM | > 50 µM | 12.9% |
| O=C(CCCN1CCC(O)(c2ccc(Br)cc2)CC1)c1ccc(F)cc1 [BROMPERIDOL] | ≤ 0.78 µM | > 50 µM | > 50 µM | > 50 µM | 15% |
| Nc1ccncc1 [FAMPRIDINE] | > 50 µM | > 50 µM | > 50 µM | > 50 µM | 20.4% |
| CC(=O)[O][Hg][c]1ccccc1 [PHENYLMERCURIC ACETATE] | ≤ 0.78 µM | ≤ 0.78 µM | ≤ 0.78 µM | ≤ 0.78 µM | 22.2% |
| O=C(CCCN1CCC2(CC1)C(=O)NCN2c1ccccc1)c1ccc(F)cc1 [SPIPERONE] | > 50 µM | > 50 µM | > 50 µM | > 50 µM | 20.9% |
| Oc1cc(Cl)ccc1Oc1ccc(Cl)cc1Cl [TRICLOSAN] | 1.56 µM | ≤ 0.78 µM | ≤ 0.78 µM | ≤ 0.78 µM | 23.5% |
| O=C1OCCN1/N=C/c1ccc([N+](=O)[O-])o1 [FURAZOLIDONE] | ≤ 0.78 µM | 6.25 µM (≈ 1.41 µg/mL) | 12.5 µM (≈ 2.81 µg/mL) | 12.5 µM (≈ 2.81 µg/mL) | 6.45% |
| O=C(O)c1cn(C2CC2)c2cc(N3CCNCC3)c(F)cc2c1=O [CIPROFLOXACIN] | ≤ 0.78 µM | > 50 µM |  | ≤ 0.78 µM | 21.5% |
| CO/N=C(\C(=O)N[C@@H]1C(=O)N2C(C(=O)OCOC(=O)C(C)(C)C)=C(/C=C\c3scnc3C)CS[C@H]12)c1csc(N)n1 [CEFDITORIN PIVOXIL] | > 50 µM | 50 µM (≈ 31 µg/mL) | 50 µM (≈ 31 µg/mL) | 25 µM (≈ 15.5 µg/mL) | 21% |
| CN[C@H]1CC[C@@H](c2ccc(Cl)c(Cl)c2)c2ccccc21 [SERTRALINE HYDROCHLORIDE] | > 50 µM | > 50 µM | > 50 µM | > 50 µM | 22.7% |
| CC(=O)OC1CN2CCC1CC2 (centres undefined) [ACECLIDINE] | > 50 µM | > 50 µM | > 50 µM | > 50 µM | 20.3% |
| COc1cc(CNC(=O)CCCC/C=C/C(C)C)ccc1O [CAPSAICIN] | > 50 µM | > 50 µM | > 50 µM | > 50 µM | 19.5% |
| CC(C)NCC(O)COc1cccc2[nH]ccc12 (centres undefined) [PINDOLOL] | 1.56 µM | > 50 µM | > 50 µM | > 50 µM | 7.73% |
| OC[C@H]1O[C@H](O[C@]2(CCl)O[C@H](CCl)[C@@H](O)[C@@H]2O)[C@H](O)[C@@H](O)[C@H]1Cl [SUCRALOSE] | ≤ 0.78 µM | > 50 µM | ≤ 0.78 µM | 6.25 µM (≈ 2.49 µg/mL) | 15% |
| [O-][n+]1ccccc1[S-].[O-][n+]1ccccc1[S-].[Zn+2] [PYRITHIONE ZINC] | 3.13 µM | ≤ 0.78 µM | 3.13 µM | 3.13 µM | 84.4% |

The next lines start with results.

| intracellular MIC [1] | MIC ([2]; LPM pH 5.8) | MIC ([2]; MHB) | MIC ([2]; MOPS glucose minimal medium) | Structure (SMILES) | cytotoxicity (RAW264.7) |
| --- | --- | --- | --- | --- | --- |
| ≤ 0.78 µM | 3.13 µM (≈ 1.24 µg/mL) | 3.13 µM (≈ 1.24 µg/mL) | ≤ 0.78 µM | C[C@@H]1CN(c2c(F)c(F)c3c(=O)c(C(=O)O)cn(C4CC4)c3c2F)C[C@H](C)N1 [ORBIFLOXACIN] | 15.3% |
| 1.56 µM | ≤ 0.78 µM | > 50 µM | ≤ 0.78 µM | CCCCCCNC(=O)n1cc(F)c(=O)[nH]c1=O [CARMOFUR] | 13.7% |
| > 50 µM | ≤ 0.78 µM | ≤ 0.78 µM | ≤ 0.78 µM | Nc1nc(/C(=C/CC(=O)O)C(=O)N[C@@H]2C(=O)N3C(C(=O)O)=CCS[C@H]23)cs1 [CEFTIBUTEN] | 21% |
| > 50 µM | ≤ 0.78 µM | ≤ 0.78 µM | ≤ 0.78 µM | O=c1[nH]c(=O)n([C@H]2C[C@H](O)[C@@H](CO)O2)cc1F [FLOXURIDINE] | 18.7% |
| ≤ 0.78 µM | 1.56 µM | > 50 µM | > 50 µM | O=C(O)CN(CCN(CC(=O)O)CC(=O)O)CC(=O)O.[Na+].[Na+].[Na+] [TRISODIUM ETHYLENEDIAMINE TETRACETATE] | 8.27% |
| 3.13 µM | ≤ 0.78 µM | 6.25 µM | 3.13 µM | C=C1c2cccc(O)c2C(=O)C2=C(O)[C@]3(O)C(=O)C(C(N)=O)=C(O)[C@@H](N(C)C)[C@@H]3[C@@H](O)[C@H]12 [METHACYCLINE HYDROCHLORIDE] | 13.8% |
| ≤ 0.78 µM | ≤ 0.78 µM | ≤ 0.78 µM | ≤ 0.78 µM | COc1c(N2CCNC(C)C2)c(F)cc2c(=O)c(C(=O)O)cn(C3CC3)c12 (centres undefined) [GATIFLOXACIN] | 21.7% |
| 12.5 µM | ≤ 0.78 µM | 12.5 µM | 6.25 µM | CN(C)c1ccc(O)c2c1C[C@H]1C[C@H]3[C@H](N(C)C)C(O)=C(C(N)=O)C(=O)[C@@]3(O)C(O)=C1C2=O [MINOCYCLINE HYDROCHLORIDE] | 21% |
| ≤ 0.78 µM | ≤ 0.78 µM | ≤ 0.78 µM | ≤ 0.78 µM | C[C@@H]1CN(c2c(F)c(N)c3c(=O)c(C(=O)O)cn(C4CC4)c3c2F)C[C@H](C)N1 [SPARFLOXACIN] | 16.6% |
| ≤ 0.78 µM | ≤ 0.78 µM | ≤ 0.78 µM | ≤ 0.78 µM | NC1CCN(c2c(F)cc3c(=O)c(C(=O)O)cn(C4CC4)c3c2Cl)C1 (centres undefined) [CLINAFOXACIN HYDROCHLORIDE] | 15.8% |
| > 50 µM | ≤ 0.78 µM | 12.5 µM (≈ 6.83 µg/mL) | ≤ 0.78 µM | CC(C)(O/N=C(\C(=O)N[C@@H]1C(=O)N2C(C(=O)[O-])=C(C[n+]3ccccc3)CS[C@H]12)c1csc(N)n1)C(=O)O [CEFTAZIDIME] | 20.8% |
| ≤ 0.78 µM | ≤ 0.78 µM | 25 µM (≈ 6.11 µg/mL) | ≤ 0.78 µM | Nc1ncn([C@@H]2O[C@H](CO)[C@@H](O)[C@H]2O)c(=O)n1 [AZACITIDINE] | 16.4% |
| > 50 µM | ≤ 0.78 µM | 25 µM (≈ 4.75 µg/mL) | 6.25 µM (≈ 1.19 µg/mL) | O=[N+]([O-])c1ccc(O)c2ncccc12 [NITROXOLINE] | 14.6% |
| > 50 µM | ≤ 0.78 µM | 25 µM (≈ 5.81 µg/mL) | 6.25 µM (≈ 1.45 µg/mL) | CCn1cc(C(=O)O)c(=O)c2ccc(C)nc21 [NALIDIXIC ACID] | 16% |
| ≤ 0.78 µM | ≤ 0.78 µM | ≤ 0.78 µM | ≤ 0.78 µM | CO/N=C(\C(=O)N[C@@H]1C(=O)N2C(C(=O)O)=C(C[N+]3(C)CCCC3)CS[C@H]12)c1csc(N)n1 [CEFEPIME HYDROCHLORIDE] | 15.4% |
| > 50 µM | ≤ 0.78 µM | 50 µM (≈ 15.3 µg/mL) | 50 µM (≈ 15.3 µg/mL) | Oc1c(I)cc(Cl)c2cccnc12 [CLIOQUINOL] | 20% |
| ≤ 0.78 µM | ≤ 0.78 µM | ≤ 0.78 µM | ≤ 0.78 µM | O=C(O)c1cn(-c2ccc(F)cc2)c2cc(N3CCNCC3)c(F)cc2c1=O [SARAFLOXACIN HYDROCHLORIDE] | 21.5% |
| ≤ 0.78 µM | ≤ 0.78 µM | > 50 µM | > 50 µM | CCn1nc(C(=O)O)c(=O)c2cc3c(cc21)OCO3 [CINOXACIN] | 8.11% |
| ≤ 0.78 µM | ≤ 0.78 µM | > 50 µM | ≤ 0.78 µM | O=c1[nH]cc(F)c(=O)[nH]1 [FLUOROURACIL] | 8.29% |
| 6.25 µM | ≤ 0.78 µM | 6.25 µM (≈ 2.88 µg/mL) | 12.5 µM (≈ 5.76 µg/mL) | CN(C)[C@@H]1C(O)=C(C(N)=O)C(=O)[C@@]2(O)C(O)=C3C(=O)c4c(O)cccc4[C@@](C)(O)[C@H]3[C@H](O)[C@@H]12 [OXYTETRACYCLINE] | 15.7% |
| 1.56 µM | 1.56 µM (≈ 0.498 µg/mL) | ≤ 0.78 µM | ≤ 0.78 µM | CCn1cc(C(=O)O)c(=O)c2cc(F)c(N3CCNCC3)cc21 [NORFLOXACIN] | 8.22% |
